Measured values as given in ChEMBL document CHEMBL1141724, “Design and synthesis of 2-amino-pyrazolopyridines as Polo-like kinase 1 inhibitors” (Bioorg Med Chem Lett, 2008).
Activity calls are given as the source filed them. The calls are words filed in the database; no cut-off is given here.

What was measured:
[1] = biological target: Serine/threonine-protein kinase PLK1 (Homo sapiens, UniProt P53350)
[2] = test system: HCT-116; test: cells; settings: Homo sapiens
Description: Effect on cell cycle progression in human HCT116 cells assessed as mitotic arrest measured by doubling DNA content by High content screening

[3] = test system: HeLa; test: Decrease in B23 nucleophosmin phosphorylation in human HeLa cells at 5 uM after 16 hrs by Western blot analysis; format: functional, cell-based
[4] = test system: HCT-116; test: cells; settings: Homo sapiens; remark: listed apart in the source
Description: Effect on cell cycle progression in human HCT116 cells assessed as increase in phospho-histone H3 by fluorescence microscopy

[5] = Selectivity for Plk1 over Plk3
[6] = Selectivity for Plk1 over Aurora A
[7] = Selectivity for Plk1 over Plk2
[8] = test system: HCT-116; test: cells; settings: Homo sapiens; remark: listed apart in the source
Description: Effect on cell cycle progression in human HCT116 cells assessed as mitotic arrest measured by doubling DNA content by fluorescence microscopy

Chain of Serine/threonine-protein kinase PLK1 (P53350 whole entry): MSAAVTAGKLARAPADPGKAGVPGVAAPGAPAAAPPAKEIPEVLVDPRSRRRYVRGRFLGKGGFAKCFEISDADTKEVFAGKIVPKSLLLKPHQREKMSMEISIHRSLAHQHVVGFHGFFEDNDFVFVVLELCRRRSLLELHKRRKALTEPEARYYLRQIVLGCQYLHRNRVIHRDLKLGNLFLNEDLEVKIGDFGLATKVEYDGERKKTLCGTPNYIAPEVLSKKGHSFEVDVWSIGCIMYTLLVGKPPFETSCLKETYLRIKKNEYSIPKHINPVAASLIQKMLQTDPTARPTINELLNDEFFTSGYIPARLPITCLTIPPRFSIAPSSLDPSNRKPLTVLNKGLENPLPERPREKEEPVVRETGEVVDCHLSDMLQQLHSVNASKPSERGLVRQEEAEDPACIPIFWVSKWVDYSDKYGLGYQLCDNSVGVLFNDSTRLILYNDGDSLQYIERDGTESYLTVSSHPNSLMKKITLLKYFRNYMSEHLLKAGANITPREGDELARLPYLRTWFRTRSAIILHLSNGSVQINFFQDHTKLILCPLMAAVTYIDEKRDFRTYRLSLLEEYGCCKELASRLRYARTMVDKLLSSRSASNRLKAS

Row | IC50 [1] [nM] | EC50 [2] [nM] | Compound | other results
1 | 474 | – | Cc1cccc(-n2nc(C)c3cnc(N[C@@H](C)c4ccccc4)cc32)c1 | –
2 | 412 | – | Cc1nn(-c2cccc(C#N)c2)c2cc(N[C@@H](C)c3ccccc3)ncc12 | –
3 | 1480 | – | Cc1nn(-c2cccc(C(C)C)c2)c2cc(N[C@@H](C)c3ccccc3)ncc12 | –
4 | 641 | – | Cc1nn(-c2cc(Cl)cc(Cl)c2)c2cc(N[C@@H](C)c3ccccc3)ncc12 | –
5 | 48 | 9200 | Cc1nn(-c2cc(Cl)cc(CCC(=O)NCCO)c2)c2cc(N[C@@H](C)c3ccccc3)ncc12 | –
6 | 50 | 2430 | C[C@H](Nc1cc2c(cn1)cnn2-c1ccccc1C(N)=O)c1ccccc1 | Activity [3]: Active; EC50 [4]: 1700 nM; Selectivity ratio [5]: 50; Selectivity ratio [6]: 150; Selectivity ratio [7]: 50; EC50 [8]: 1900 nM
7 | 225 | – | Cc1nn(-c2cccc(S(C)(=O)=O)c2)c2cc(N[C@@H](C)c3ccccc3)ncc12 | –
8 | 977 | – | Cc1nn(-c2cccc(N(C)C)c2)c2cc(N[C@@H](C)c3ccccc3)ncc12 | –
9 | 4520 | – | Cc1nn(-c2ccccc2F)c2cc(N[C@@H](C)c3ccccc3)ncc12 | –
10 | 149 | – | Cc1cc(C)cc(-n2nc(C)c3cnc(N[C@@H](C)c4ccccc4)cc32)c1 | –

The next lines start with the molecule.

Row | Compound | IC50 [1] [nM] | EC50 [2] [nM] | other results
11 | Cc1nn(-c2cc(Cl)cc(Br)c2)c2cc(N[C@@H](C)c3ccccc3)ncc12 | 274 | – | –
12 | Cc1nn(-c2cc(Cl)cc(CCC(=O)O)c2)c2cc(N[C@@H](C)c3ccccc3)ncc12 | 21 | > 20000 | –
13 | COc1ccc(-n2nc(C)c3cnc(N[C@@H](C)c4ccccc4)cc32)cc1 | 703 | – | –
14 | Cc1nn(-c2cccc(F)c2)c2cc(N[C@@H](C)c3ccccc3)ncc12 | 464 | – | –
15 | Cc1nn(-c2cccc(Cl)c2)c2cc(N[C@@H](C)c3ccccc3)ncc12 | – | > 20000 | –
16 | Cc1nn(-c2ccc(F)cc2)c2cc(N[C@@H](C)c3ccccc3)ncc12 | 3240 | – | –
17 | COc1cccc(-n2nc(C)c3cnc(N[C@@H](C)c4ccccc4)cc32)c1 | 5930 | – | –
18 | Cc1nn(-c2cc(Cl)cc(CCCN)c2)c2cc(N[C@@H](C)c3ccccc3)ncc12 | 59 | 5800 | –
19 | CC(=O)Nc1ccccc1-c1cc(Cl)cc(-n2nc(C)c3cnc(N[C@@H](C)c4ccccc4)cc32)c1 | 207 | > 20000 | –
20 | Cc1ccccc1-n1nc(C)c2cnc(N[C@@H](C)c3ccccc3)cc21 | 7690 | – | –
21 | CCOC(=O)C1=C(C)NC(=S)NC1c1cccc(O)c1 (centres undefined) [MONASTROL] | – | – | EC50 [4]: 1500 nM; EC50 [8]: 1200 nM
22 | Cc1nn(-c2cc(Cl)cc(CCC(N)=O)c2)c2cc(N[C@@H](C)c3ccccc3)ncc12 | 32 | 9350 | –
23 | COc1ccccc1-n1nc(C)c2cnc(N[C@@H](C)c3ccccc3)cc21 | 14500 | – | –
24 | Cc1ccc(-n2nc(C)c3cnc(N[C@@H](C)c4ccccc4)cc32)cc1 | 4530 | – | –
25 | Cc1nn(-c2ccccc2C(N)=O)c2cc(N[C@@H](C)c3ccccc3)ncc12 | 42 | 3640 | –
